Patent US5240928A, “Substituted quinazolinones as angiotensin II antagonists” (Merck & Co., Inc., priority 1991, dated 1993)

Assay: pKa
Format: physicochemical

pKa: 4.7
Structure (SMILES): CCCc1nc2ccc(C)cc2c(=O)n1Cc1ccc(-c2ccccc2-c2nn[nH]n2)cc1 [Example 76]
